Key:
Assay type in all cases: in vivo
[1] = test system: green peach aphid (Myzus persicae); test: Green peach aphid systemic test, artificial diet in 96-well microtiter plates; settings: 72 h, read-out: mortality in comparison with untreated controls
Excerpt: B.1 Green Peach Aphid (Myzus persicae)
For evaluating control of green peach aphid (Myzus persicae) through systemic means, the test unit consists of 96-well-microtiter plates containing liquid artificial diet under an artificial membrane.
The compounds are formulated using a solution containing 75% v/v water and 25% v/v DMSO. Different concentrations of formulated compounds are pipetted into the aphid diet, using a custom built pipetter, at two replications.
After application, 5-8 adult aphids are placed on the artificial membrane inside the microtiter plate wells. The aphids are then allowed to suck on the treated aphid diet and incubated at about 23+1° C. and about 50+5% relative humidity for 3 days. Aphid mortality and fecundity is then visually assessed.

[2] = test system: vetch aphid (Megoura viciae); test: Vetch aphid contact/systemic test on broad bean leaf disks; settings: foliar, 120 h, read-out: mortality in comparison with untreated controls
Procedure: B.2 Vetch Aphid (Megoura viciae)
For evaluating control of vetch aphid (Megoura viciae) through contact or systemic means the test unit consisted of 24-well-microtiter plates containing broad bean leaf disks.
The compounds were formulated using a solution containing 75% v/v water and 25% v/v DMSO. Different concentrations of formulated compounds were sprayed onto the leaf disks at 2.5 μl, using a custom built micro atomizer, at two replications.
After application, the leaf disks were air-dried and 5-8 adult aphids were placed on the leaf disks inside the microtiter plate wells. The aphids were then allowed to suck on the treated leaf disks and were incubated at about 23±1° C. and about 50±5% relative humidity for 5 days. Aphid mortality and fecundity was then visually assessed.

[3] = test system: Cotton aphid (Aphis gossypii); test: Cotton aphid spray test on potted plants; settings: 72 h, read-out: mortality in comparison with untreated controls
Procedure: B.3 Cotton aphid (Aphis gossypii)
(§1) The active compound is dissolved at the desired concentration in a mixture of 1:1 (vol:vol) distilled water:acetone. Surfactant (Alkamuls® EL 620) is added at a rate of 0.1% (vol/vol). The test solution is prepared at the day of use.
(§2) Potted cowpea plants were colonized with approximately 50-100 aphids of various stages by manually transferring a leaf tissue cut from infested plant 24 hours before application. Plants were sprayed after the pest population has been recorded. Treated plants are maintained on light carts at about 28° C. Percent mortality was assessed after 72 hours.

[4] = test system: Cowpea Aphid (Aphis craccivora); test: Cowpea aphid spray test on potted cowpea plants; settings: 72 h, read-out: mortality in comparison with untreated controls
Procedure: B.4 Cowpea Aphid (Aphis craccivora)
as §1
as §2, with “are” for “were”, “is” for “was”

[5] = test system: Silverleaf Whitefly (bemisia argentifolii); test: Silverleaf whitefly spray test on cotton plants; settings: 72 h, read-out: mortality in comparison with untreated controls
Excerpt: B.5 Silverleaf Whitefly (bemisia argentifolii)
The active compounds are formulated in cyclohexanone as a 10,000 ppm solution supplied in tubes. The tubes are inserted into an automated electrostatic sprayer equipped with an atomizing nozzle and they serve as stock solutions for which lower dilutions are made in 50% acetone:50% water (v/v). A nonionic surfactant (Kinetic®) is included in the solution at a volume of 0.01% (v/v).
Cotton plants at the cotyledon stage (one plant per pot) are sprayed by an automated electrostatic plant sprayer equipped with an atomizing spray nozzle. The plants are dried in the sprayer fume hood and then removed from the sprayer. Each pot is placed into a plastic cup and about 10 to 12 whitefly adults (approximately 3-5 days old) are introduced. The insects are collected using an aspirator and a nontoxic Tygon® tubing connected to a barrier pipette tip. The tip, containing the collected insects, is then gently inserted into the soil containing the treated plant, allowing insects to crawl out of the tip to reach the foliage for feeding. Cups are covered with a reusable screened lid. […] Mortality is assessed 3 days after treatment, compared to untreated control plants.

[6] = test system: Orchid Thrips (dichromothrips corbetti); test: Orchid thrips floral-immersion test; settings: 72 h, read-out: mortality in comparison with untreated controls
Procedure: B.6 Orchid Thrips (dichromothrips corbetti)
Dichromothrips corbetti adults used for bioassay are obtained from a colony maintained continuously under laboratory conditions. For testing purposes, the test compound is diluted in a 1:1 mixture of acetone:water (vol:vol), plus 0.01% vol/vol Alkamuls® EL 620 surfactant.
Thrips potency of each compound is evaluated by using a floral-immersion technique. Plastic petri dishes are used as test arenas. All petals of individual, intact orchid flowers are dipped into treatment solution and allowed to dry. Treated flowers are placed into individual petri dishes along with about 20 adult thrips. The petri dishes are then covered with lids. All test arenas are held under continuous light and a temperature of about 28° C. for duration of the assay. After 3 days, the numbers of live thrips are counted on each flower, and along inner walls of each petri dish. The percent mortality is recorded 72 hours after treatment.

[7] = test system: Rice Green Leafhopper (Nephotettix virescens); test: Rice green leafhopper spray test on rice seedlings; settings: 72 h, read-out: mortality in comparison with untreated controls
Procedure: B.7 Rice Green Leafhopper (Nephotettix virescens)
(§3) Rice seedlings are cleaned and washed 24 hours before spraying. The active compounds are formulated in 50:50 acetone:water (vol:vol), and 0.1% vol/vol surfactant (EL 620) is added. Potted rice seedlings are sprayed with 5 ml test solution, air dried, placed in cages and inoculated with 10 adults. Treated rice plants are kept at about 28-29° C. and relative humidity of about 50-60%. Percent mortality is recorded after 72 hours.

[8] = test system: Rice Brown Plant Hopper (Nilaparvata lugens); test: Rice brown plant hopper spray test on rice seedlings; settings: 72 h, read-out: mortality in comparison with untreated controls
Procedure: B.8 Rice Brown Plant Hopper (Nilaparvata lugens)
as §3, with “compounds is” for “compounds are”, “acetone:water (vol:vol)” for “acetone:water (vol:vol),”, “620) was” for “620) is”

[9] = test system: Green Soldier Stink Bug (Nezara viridula); test: Green soldier stink bug spray test on soybean pods; settings: 120 h, sprayed soybean pods, 3rd instar, 5 days, read-out: mortality in comparison with untreated controls
Procedure: B.10 Green Soldier Stink Bug (Nezara viridula)
The active compound is dissolved at the desired concentration in a mixture of 1:1 (vol:vol) distilled water:aceteone. Surfactant (Kinetic HV) is added at a rate of 0.01% (vol/vol). The test solution is prepared at the day of use.
Soybean pods were placed in microwavable plastic cups lined with moist filter paper and inoculated with ten 3rd instar N. viridula. Using a hand atomizer, approximately 2 ml solution is sprayed into each cup. Treated cups were kept at about 28-29° C. and relative humidity of about 50-60%. Percent mortality was recorded after 5 days.

[10] = test system: Diamond Back Moth (Plutella xylostella); test: Diamond back moth cabbage leaf dip test; settings: foliar, 72 h, read-out: mortality in comparison with untreated controls
Procedure: B.9 Diamond Back Moth (Plutella xylostella)
The active compound is dissolved at the desired concentration in a mixture of 1:1 (vol:vol) distilled water:aceteone. Surfactant (Alkamuls® EL 620) is added at a rate of 0.1% (vol/vol). The test solution is prepared at the day of use.
Leaves of cabbage were dipped in test solution and air-dried. Treated leaves were placed in petri dish eslined with moist filter paper and inoculated with ten 3rd instar larvae. Mortality was recorded 72 hours after treatment. Feeding damages were also recorded using a scale of 0-100%.

With `N#CCC(=O)/N=c1\ccccn1Cc1ccc(Cl)nc1` [I.A-1] the mortality at 2500 ppm [1] was ≥ 75%, the mortality at 2500 ppm [2] was ≥ 75% and the mortality at 500 ppm [3] was > 75%. The mortality at 500 ppm [4] was ≥ 75%, the mortality at 500 ppm [5] was ≥ 75% and the mortality at 500 ppm [6] was ≥ 75%. For the same compound, the mortality at 500 ppm [7] was ≥ 75%, the mortality at 500 ppm [8] was ≥ 75% and the mortality at 500 ppm [9] was > 75%.
With `N#CC1(C(=O)/N=c2\ccccn2Cc2ccc(Cl)nc2)CC1` [I.B-1] the mortality at 2500 ppm [1] was ≥ 75%, the mortality at 2500 ppm [2] was ≥ 75% and the mortality at 500 ppm [4] was ≥ 75%. The mortality at 500 ppm [6] was ≥ 75%, the mortality at 500 ppm [7] was ≥ 75% and the mortality at 500 ppm [8] was ≥ 75%. The mortality at 500 ppm [10] was > 75%.

Source: patent US10206397B2, “N-acylimino heterocyclic compounds” (BASF SE, priority 2013, dated 2019)
